Key:
D. suzukii larvae = assay: Survival and development of larvae in pre-infested blueberries; assay type: in vivo, Drosophila suzukii; conditions: counted after 12 days
Method: To investigate the impact of (E)-2-hexenal on the emergence of D. suzukii, eight ripe, untreated blueberries were placed in the cage 60a together with adult D. suzukii flies for 4 days. All flies were then removed and discarded and half of the pre-infested blueberries was dipped into 10 mL of a 1%, 5% or 10% E-2-hexenal aqueous emulsion (as above), while the other half was dipped in 10 mL deionized water as a control. Survival of D. suzukii larvae was measured by counting the number of adult flies that emerged from the odour-treated blueberries versus the control condition after 12 days.
The percentage of adult fly emergence under the treated and untreated conditions relative to the sum of all flies that emerged under both conditions in each assay was calculated. The results of these experiments are shown on FIG. 6C (1% vol (E)-2-hexenal), FIG. 6D (5% vol. (E)-2-hexenal), and FIG. 6E (10% vol. (E)-2-hexenal).
Eight ripe, untreated blueberries were placed in a Petri dish at the bottom of a cylindrical plastic fly cage together with 20 mixed (10 females, 10 males) adult D. suzukii flies for 4 days. All flies were then removed and discarded and half of the pre-infested blueberries was dipped into 10 mL of a 1%, 5% or 10% (E)-2-hexenal aqueous emulsion, while the other half was dipped in 10 mL deionised water as a control. The blueberries were then left to air dry, then placed in empty fly vials with cotton lids and left at ambient room temperature conditions. Survival of D. suzukii larvae was measured by counting the number of adult flies that emerged from the odour-treated blueberries versus the control condition after 12 days. The assay was repeated 5 times.

[1] = tested on: larvae of the other species of the Drosophila melanogaster species group; assay: Fly larva chemotaxis assay; assay type: in vivo, Drosophila spp.; conditions: 1% vol in paraffin oil, 5 minutes
Method: (§1) Larvae were exposed to 1% vol solution of (E)-2-hexenal or methyl benzoate in paraffin oil loaded onto the lid of a petri dish. Their movement was tracked for 5 minutes. A preference index was quantified as the fraction of time larvae spent in a zone around the odour sources. A population of 15 larvae were used per trial and they were placed in the centre of the petri dish at the start of the experiment. The average distance of the larvae to the odour sources was also quantified over time. The results of this analysis are shown on FIG. 9, for each of the conditions where a VOC of the invention was used. A total of 10 trials were performed for each condition, i.e. for each VOC and fly species, and 30 trials were performed for a control condition, for which only the solvent paraffin oil was applied.
(§2) Behavioural experiments were performed with third instar foraging larvae. A group of approximately 15 larvae per trial was placed in a Petri dish and monitored during 5 minutes for their chemotactic behaviour, as larvae were exposed to an odour gradient in gas phase emanating from the two odour sources on the lid of the Petri dish. […] Larval behaviour was tracked using a video camera and the data derived was then analysed in Matlab (MathWorks) using custom-made programs to calculate additional time-series variables, and to determine the preference index and the distance of larvae to the source.

D. santomea larvae = assay: Fly larva chemotaxis assay; assay type: in vivo; conditions: 1% vol in paraffin oil, 5 minutes
Method: as §1, §2

D. melangaster larvae = assay: Fly larva chemotaxis assay; assay type: in vivo, Drosophila melanogaster; conditions: D. melanogaster larvae, 1% vol in paraffin oil, 5 minutes
Method: as §1, §2

Compound	adult fly emergence from pre-infested blueberries versus control (D. suzukii larvae; 1% vol aqueous emulsion dip)	adult fly emergence from pre-infested blueberries versus control (D. suzukii larvae; 5% vol aqueous emulsion dip)	adult fly emergence from pre-infested blueberries versus control (D. suzukii larvae; 10% vol aqueous emulsion dip)	larval chemotactic response [1]	larval chemotactic response (D. santomea larvae)	larval chemotactic response (D. melangaster larvae)
CCC/C=C/C=O [(E)-2-hexenal]	not statistically significantly (NS) different from the control condition	does not result in any adult fly emergence	does not result in any adult fly emergence	attractive chemotactic responses		
COC(=O)c1ccccc1 [methyl benzoate, Methyl benzoate]					strongly attractive	attractive

— US11779015B2, “Pesticide compositions” (FUNDACIÓ CENTRE DE REGULACIÓ GENÒMICA, priority 2017, dated 2023)
